Article PMC5099547 (British Journal of Clinical Pharmacology, 2016)
Marks after values point to notes of the source that are not given here.

Assays:
CYP3A4 = details: cited from earlier work
[1] = Edoxaban-ketoconazole drug interaction study, plasma pharmacokinetics
OCT2 = details: cited from earlier work
P‐gp = details: Caco‐2 cell monolayers; transport strongly hindered by P‐gp inhibitors; cited from earlier work
[2] = Safety and tolerability, all three studies; format: in vivo, human
[3] = Edoxaban-cyclosporine drug interaction study, plasma pharmacokinetics
OATP1B1 = details: cited from earlier work
[4] = cited from earlier work
OAT3 = details: cited from earlier work
[5] = Edoxaban-erythromycin drug interaction study, plasma pharmacokinetics
[6] = cited from earlier work; remark: listed apart in the source
OAT1 = details: cited from earlier work
[7] = edoxaban + ketoconazole vs alone, reduced
[8] = edoxaban + cyclosporine vs edoxaban alone
[9] = edoxaban + cyclosporine vs edoxaban alone, based on geometric LSM ratios
[10] = edoxaban + erythromycin vs edoxaban alone
[11] = erythromycin study, edoxaban 60 mg alone, mean ± SD, n = 32

For `CC(=O)N1CCN(c2ccc(OCC3COC(Cn4ccnc4)(c4ccc(Cl)cc4Cl)O3)cc2)CC1` (centres unmarked) [ketoconazole], which “degree of CYP3A4 inhibitory activity” value (CYP3A4) is on record?
Its value is “strong”.

Which change in clearance [1, 7] does the source give for `CN1CCc2nc(C(=O)N[C@@H]3C[C@@H](C(=O)N(C)C)CC[C@@H]3NC(=O)C(=O)Nc3ccc(Cl)cn3)sc2C1` [Edoxaban] here?
The change in clearance was “approximately 46%”.

What about the “change in volume of distribution” value [1, 7] of the same molecule?
Its value is “approximately 46%”.

What about the “increase in total exposure (AUC)” value ([1]; edoxaban + ketoconazole vs edoxaban alone) of the same molecule?
Its value is 87%.

What about the half-life ([1]; human, in vivo) of the same molecule?
Its half-life is roughly 690 min.

What about the AUC(0-inf) ([1]; human, in vivo, 60 mg) of the same molecule?
The AUC(0-inf) was 1650 ± 412 ng·h/mL.

What about the half-life ([1]; human, in vivo, 60 mg) of the same molecule?
Its half-life is 712 ± 247 min.

And the Cmax ([1]; human, in vivo, po, 60 mg)?
Its Cmax is 245 ± 86.9 ng/mL.

What about the “substrate of OCT2” value (OCT2) of the same molecule?
The value was “not a substrate”.

What about the “transport via P‐gp” value (P‐gp) of the same molecule?
The value was “transported via P‐gp”.

And the serious adverse events [2]?
The serious adverse events was “No serious adverse events”.

And the tolerability ([2]; alone or in combination with ketoconazole, erythromycin, or cyclosporine)?
The tolerability was “well tolerated”.

And the “increase in peak exposure” value [3, 8]?
The value was “approximately 1.7 fold”.

What about the “increase in total exposure” value [3, 8] of the same molecule?
The value was “approximately 1.7 fold”.

What about the “increase in peak exposure (Cmax)” value [3, 9] of the same molecule?
The value was 74%.

And the “increase in total exposure (AUC)” value [3, 9]?
The value was 73%.

What about the AUC(0-inf) ([3]; human, in vivo, 60 mg) of the same molecule?
The AUC(0-inf) was 1830 ± 363 ng·h/mL.

What about the Tmax ([3]; human, in vivo, 60 mg) of the same molecule?
Its Tmax is 1.5 h.

And the half-life ([3]; human, in vivo, 60 mg)?
The half-life was 870 ± 320 min.

What about the “substrate of OATP1B1” value (OATP1B1) of the same molecule?
The value was “not a substrate”.

And the “increase in total exposure with quinidine” value ([4]; intravenous dosing of edoxaban)?
Its value is “about 35%”.

What about the “increase in exposure with quinidine” value ([4]; oral edoxaban) of the same molecule?
Its value is “about 68%”.

And the “substrate of OAT3” value (OAT3)?
The value was “not a substrate”.

And the “decrease in apparent volume of distribution” value [5, 10]?
The value was 63%.

And the “decrease in total apparent clearance” value [5, 10]?
Its value is “about 47%”.

What about the “increase in total exposure (AUC)” value [5, 10] of the same molecule?
The value was 85%.

What about the “AUC (extrapolated to infinity)” value [5, 11] of the same molecule?
The value was 1740 ± 443.7 ^b ng h ml^–1.

And the t1/2 [5, 11]?
The t1/2 was 10.24 ± 3.71 ^b h.

What about the Cmax ([5]; human, in vivo, po, 60 mg) of the same molecule?
Its Cmax is 259 ± 100 ng/mL.

What about the “metabolism via CYP3A4, share of total clearance” value [6] of the same molecule?
Its value is less than 4%.

What about the “oral (absolute) bioavailability” value [6] of the same molecule?
Its value is 62%.

And the “substrate of OAT1” value (OAT1)?
Its value is “not a substrate”.
